The values below come from US7713942B2, “Cage-like microparticle complexes comprising sterols and saponins for delivery of polynucleotides” (Nordic Vaccine Technology A/S, priority 2001, dated 2010).

A short description of data set [1]: Equilibrium-dialysis of ^14C-Mega 10 from ISCOM-matrix. Conditions: water not replaced. The procedure:
ISCOMs were prepared by combining Quil A, cholesterol and phophatidylcholine with the component to be inserted (e.g. lipopeptide). ISCOMs were allowed to form for 4 hours with stirring at 35° C. (room temperature for experiments with ^12C/^14C-Mega 10) followed by dialysis against phosphate buffered saline (pH 7.2) in Slide-A-Lyzer® cassettes (Pierce, Rockford, Ill.) or dialysis tubing (Visking, London, UK), MW cut-off 10,000. The concentration in the reaction mixture of Quil A ranged 0.9 mg/ml to 1.3 mg/ml for the different preparations (see Section 3), whereas the concentration of cholesterol and phophatidylcholine was 0.03% w/v in all experiments. The final concentration of Mega 10 was 4% w/v unless otherwise stated.
In the first experiment the kinetics of the Mega 10-dialysis was investigated. ISCOM-matrix was formed in the presence of 7% w/v ^12C/^14C-Mega 10 and Quil A at a concentration of 0.9 mg/ml. From a total volume of 18.3 ml sixteen aliquots of 1 ml were taken and set up for dialysis against water in 8 beakers of 1000 ml (2×1 ml bags per 1000 ml water). Four beakers were placed at room temperature and four at 4° C. with stirring. On each of the following days one beaker from both temperatures were taken and the contents of the individual dialysis bags (2×2 bags) counted after addition of water in order to compensate for differences in volume. Table 1 lists the amount of ^14C-Mega 10 remaining in each bag after dialysis for a certain period of time given as the percentage of cpm (counts per minute) relative to the initial ^14C-contents. […] However, the same end-point concentration of ^14C-Mega 10 was reached within four days (0.4-1%) despite of temperature. Anticipating that Mega 10 diffuses freely across the dialysis membrane one would expect the contents of dialysis bags to represent 0.51% of the total ^14C-Mega 10, as the volume of two bags (from one beaker) at equilibrium was 5.1 ml leaving approx. 995 ml in the beaker (5.1 ml/995 ml*100%=0.51%). And it is concluded that although dialysis at room temperature is faster than dialysis at 4° C. both methods are equally efficient in removing Mega 10 from ISCOM-matrix.

A short description of data set [2]: End-point-dialysis of ^14C-Mega 10 from ISCOM-matrix. Conditions: for Amount of detergent remaining in bags: Room temperature, daily replacement of water. The procedure:
In order to further investigate if Mega 10 could be completely removed from ISCOM-matrix a second experiment was designed. Here, four dialysis bags containing 1 ml of ISCOM-matrix prepared with 3.3% w/v ^12C/^14C-Mega 10 was placed in individual beakers containing 1000 ml of water. Dialysis was performed at room temperature with stirring. Each day one beaker was taken and the contents of the dialysis bag counted after which the dialysis buffer (water) of the remaining beakers was replaced.

For data set [3] the following is noted: dose-dependent, apparently nonspecific; cited from earlier work.

Several values for one entry are separate records, joined by “and”; a condition that tells them apart may be missing. Equal values may be shown once.

Consider `CCCCCCCCCC(=O)N(C)CC(O)C(O)C(O)C(O)CO` (centres unmarked) [^14C-Mega 10, N-Decanoyl-N-methylglucamide], for which the “Amount of detergent remaining in dialysis bags” value in data set [1] (4° C., 1 day) is 14.5 percentage of initial cpm and 13.5 percentage of initial cpm; in data set [1] (4° C., 2 days), 2.2 percentage of initial cpm and 2.3 percentage of initial cpm; in data set [1] (4° C., 3 days) it was 1.0 percentage of initial cpm and 1.3 percentage of initial cpm; in data set [1] (4° C., 4 days) it was 0.7 percentage of initial cpm and 1.1 percentage of initial cpm; in data set [1] (Room temperature, 1 day), 2.1 percentage of initial cpm; in data set [1] (Room temperature, 2 days), 0.9 percentage of initial cpm. For the same compound, the “Amount of detergent remaining in dialysis bags” value in data set [1] (Room temperature, 3 days) is 0.9 percentage of initial cpm; in data set [1] (Room temperature, 4 days) it was 0.7 percentage of initial cpm and 0.4 percentage of initial cpm. For the same compound, the “Amount of detergent remaining in bags” value turned out to be 0.23% in data set [2] (1 day), 0.07% in data set [2] (2 days), 0.06% in data set [2] (3 days) and 0.07% in data set [2] (4 days). In data set [2] (at equilibrium, with replacement of water), the “original amount of detergent remaining within the dialysis bag” value was determined as 0.07%.

`CC(=O)O[C@@H]1[C@H](O[C@@H]2O[C@@H](CO)[C@H](O)[C@H]2O)[C@@H](O[C@@H]2O[C@@H](C)[C@H](O[C@@H]3OC[C@@H](O)[C@H](O)[C@H]3O)[C@@H](O)[C@H]2O)[C@H](OC(=O)[C@]23CCC(C)(C)C[C@H]2C2=CC[C@@H]4[C@@]5(C)CC[C@H](O[C@@H]6O[C@H](C(=O)O)[C@@H](O)[C@H](O[C@@H]7OC[C@@H](O)[C@H](O)[C@H]7O)[C@H]6O[C@@H]6O[C@H](CO)[C@H](O)[C@H](O)[C@H]6O)[C@@](C)(C=O)[C@H]5CC[C@@]4(C)[C@]2(C)CC3)O[C@@H]1C` [Squarroside A]: the immunomodulating activity result in data set [3] is “a suppressive effect at concentrations in the μg range and a stimulant effect in the pg range”.
